Assay results published in US7186817B2, “Polynucleotides encoding phytase polypeptides” (Forskningscenter Riso, priority 2000, dated 2007).

Key:
soybean phytase = conditions: cited from earlier work
[1] = test system: phytase activity of fraction F1; conditions: fraction F1, pH optimum 5.6; cited from earlier work
[2] = test system: earlier described phytase activity (wheat bran); conditions: activity with optimum at about pH 5.0; cited from earlier work
[3] = Determination of the isoelectric point (non-denaturing isoelectric focusing); assay type: physicochemical; conditions: visualised with 1-naphtylphosphate and Farst Garnet GBC
Description: FIG. 5: depicts the isoelectric focusing of the purified wheat bran phytase. A double band at pH 7.4 is visible after incubation with 1-naphtylphosphate and Farst Garnet GBC.
Proteins were focused at 11° C. for a total of 2.5 kVh in non-denaturing isoelectric-focusing polyacrylamid gels (IEF)(Ampholine PAGplate pH 3.5–9.5 (Pharmacia)). An IEF calibration kit (Pharmacia) was applied to determine the pH-gradient across the gel. The IEF markers were visualised by Coomassie staining according to the recommendations of the manufacturer. The presence of acid phosphatase was identified by incubation of the gel at 37° C. in 100 ml 0.05M citrate, pH 4.5 with 50 mg Na-1-naphtyl phosphate (Merck 6815), 25 mg Farst Garnet GBC (Sigma F-8761) and 0.5 ml 10% MgCl.

| Molecule | enzyme active (soybean phytase; 0.5 μM phosphate) [%] | Ki (soybean phytase; read-out: apparent Ki, product inhibition by phosphate) [µM] | inhibition of activity by phosphate [1] | inhibition of activity by phosphate [2] | isoelectric focusing, double band at pH [3] [pH] |
| --- | --- | --- | --- | --- | --- |
| phosphate | 67 | 18 | inhibited | not inhibited at all |  |
| wheat bran phytase: phytase purified from wheat bran according to the invention (SEQ ID NO: 7) (protein, listed as Triticum aestivum) MWMWRGSLPLLLLAAAVAAAAEPASTLEGPSRPVTVPLREDRGHAVDLPDTDPRVQRRVTGWAPEQIAVALSAAPTSAWVSWITGDFQMGGAVKPLDPGTVGSVVRYGLAADSLVREATGDALVYSQLYPFEGLQNYTSGIIHHVRLQGLEPGTKYYYQCGDPAIPGAMSAVHAFRTMPAVGPRSYPGRIAVVGDLGLTYNTTSTVDHMASNRPDLVLLVGDVCYANMYLTNGTGADCYSCAFGKSTPIHETYQPRWDYWGRYMEAVTSGTPMMVVEGNHEIEEQIGNKTFAAYRSRFAFPSTESGSFSPFYYSFDAGGIHFLMLGAYADYGRSGEQYRWLEKDLAKVDRSVTPWLVAGWHAPWYTTYKAHYREVECMRVAMEELLYSHGLDIAFTGHVHAYERSNRVFNYTLDPCGAVHISVGDGGNREKMATTHADEPGHCPDPRPKPNAFIGGFCAFNFTSGPAAGRFCWDRQPDYSAYRESSFGHGILEVKNETHALWRWHRNQDMYGSAGDEIYIVREPHRCLHKHNWTRPAHGP |  |  |  |  | 7.4 |
